The IC50 is the concentration needed to halve the response being measured.

Where two headings read alike, the source gives them in different places.

The target of experiment [1] is one or more of HDAC-1, HDAC-2, HDAC-3, HDAC-4, HDAC-5, HDAC-6, HDAC-7, HDAC-8, HDAC-9, HDAC-10 and HDAC-11. Description: Inhibition of Histone Deacetylase Enzymatic Activity (Boc-Lys(Ac)-AMC substrate, Fluor-de-Lys developer). In kind it is biochemical. As to conditions: read-out: HDAC Inhibition (IC50 μM) HDAC Enzyme. The method, then: The following protocol is used to assay the compounds of the disclosure.
The mixture is pre-incubated for 5 minutes at room temperature. The reaction is started by bringing the temperature to 37° C. and adding 16 μl substrate. Total reaction volume is 50 μl.
In the Tables 8, 9 and 10, A≦0.05 μM; 0.05 μM<B≦0.1 μM; 0.1 μM<C≦1 μM; and 1 μM<D≦10 μM.

The subject of experiment [2] is HDAC activity in primary mouse cortical cultures. Description: Whole-Cell Histone Deacetylase (HDAC) Inhibition Assay in Primary Mouse Cortical Cultures. In kind it is cell-based. In outline: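 Primary neocortical neurons from E17 Balb/C mouse embryos were plated at 50000 cells/well and treated at DIV9 with ten-point DMSO dilutions for 16-18 h at 37° C, in triplicate. BOC-Lys(Ac)-AMC substrate was then added for 1 h. Fluor de Lys developer containing 1 uM TSA produced a fluorophore, which was read.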

Where [3] appears, read: whole-cell (WC), mouse cortical neurons, Table 10, read-out: HDAC Inhibition (IC50 μM) WC mouse cortical neurons.
Where [4] appears, read: whole-cell (WC), mouse cortical neurons, Table 8, read-out: HDAC Inhibition (IC50 μM) WC mouse cortical neurons.
[5] abbreviates: read-out: HDAC Inhibition (IC50 μM) WC mouse cortical neurons, Table 10.

As to `O=C(/C=C/c1ccc2c(c1)C=Cc1ccccc1N2CC1CC1)NO` [(E)-3-((Z)-5-(cyclopropylmethyl)-5H-dibenzo[b,f]azepin-2-yl)-N-hydroxyacrylamide], the IC50 in experiment [1] (Table 10) lay within 0.1 to 1 µM; in experiment [2] (setting [3]), 5 to 15 µM.
For the compound `O=C(NO)c1ccc(CCNC2=Nc3ccccc3Oc3ccccc32)cc1` [(E)-4-(2-(dibenzo[b,f][1,4]oxazepin-11-ylamino)ethyl)-N-hydroxybenzamide], the IC50 lay in the range of 0.1 to 1 µM in experiment [1] (Table 8) and 5 to 15 µM in experiment [2] (setting [4]).
On to `O=C(NO)c1ccc(CNC2=Nc3ccccc3N(C3CC3)c3ccccc32)cc1` [(E)-4-((5-cyclopropyl-5H-dibenzo[b,e][1,4]diazepin-11-ylamino)methyl)-N-hydroxybenzamide], for which the IC50 in experiment [1] (Table 8) fell in the range of 0.1 to 1 µM; in experiment [2] (setting [4]), 5 to 15 µM.
For `O=C(NO)c1ccc(CNC2=Nc3ccccc3Oc3ccccc32)cc1` [(E)-4-((dibenzo[b,f][1,4]oxazepin-11-ylamino)methyl)-N-hydroxybenzamide] the same measures were less than 0.05 µM and less than 1 µM.
For `O=C(NO)c1ccc(C2=Nc3ccccc3Oc3ccccc32)c(F)c1` [(E)-4-(dibenzo[b,f][1,4]oxazepin-11-yl)-3-fluoro-N-hydroxybenzamide] the same measures were 1 to 10 µM and 5 to 15 µM.
Taken in the same sequence, the figures for `O=C(NO)c1ccc(C2=Nc3ccccc3Oc3ccccc32)o1` [(E)-5-(dibenzo[b,f][1,4]oxazepin-11-yl)-N-hydroxyfuran-2-carboxamide] were 1 to 10 µM and more than 15 µM.
Consider `O=C(NO)c1ccc(C2=Nc3ccccc3Oc3ccccc32)s1` [(E)-5-(dibenzo[b,f][1,4]oxazepin-11-yl)-N-hydroxythiophene-2-carboxamide], for which the concentration for half-maximal inhibition (IC50) is less than 0.05 µM in experiment [1] (Table 8) and 1 to 5 µM in experiment [2] (setting [4]).
For `O=C(NO)c1ccc(C2=Nc3ccccc3Oc3ccccc32)nc1` [(E)-6-(dibenzo[b,f][1,4]oxazepin-11-yl)-N-hydroxynicotinamide] the same measures were 0.1 to 1 µM and 5 to 15 µM.
With `O=C(/C=C/c1ccc(CN2C(=O)CN=C(c3ccccc3)c3ccccc32)cc1)NO` [(E)-N-hydroxy-3-(4-(((Z)-2-oxo-5-phenyl-2,3-dihydro-1H-benzo[e][1,4]diazepin-1-yl)methyl)phenyl)acrylamide], the IC50 in experiment [1] (Table 10) fell in the range of 0.05 to 0.1 µM; in experiment [2] (setting [5]) it was 1 to 5 µM.
For `CN1C(=O)CN=C(c2ccccc2)c2ccc(/C=C/C(=O)NO)cc21` [(E)-N-hydroxy-3-((Z)-1-methyl-2-oxo-5-phenyl-2,3-dihydro-1H-benzo[e][1,4]diazepin-8-yl)acrylamide] the same measures were 0.1 to 1 µM and 1 to 5 µM.
Taken in the same sequence, the figures for `O=C(/C=C/c1ccc2c(c1)NC(=O)CN=C2c1ccccc1)NO` [(E)-N-hydroxy-3-((Z)-2-oxo-5-phenyl-2,3-dihydro-1H-benzo[e][1,4]diazepin-8-yl)acrylamide] were 0.05 to 0.1 µM and 1 to 5 µM.
With `O=C(NO)c1ccc(/C=C/CN2C(=O)c3ccccc3Oc3ccccc32)cc1` [(E)-N-hydroxy-4-(3-(11-oxodibenzo[b,f][1,4]oxazepin-10(11H)-yl)prop-1-enyl)benzamide], the IC50 in experiment [1] (Table 10) is 0.05 to 0.1 µM; in experiment [2] (setting [3]), less than 1 µM.
Regarding `O=C(NO)c1ccc(-c2ccc3c(c2)C(N2CCOCC2)=Nc2ccccc2O3)cc1` [(E)-N-hydroxy-4-(11-morpholinodibenzo[b,f][1,4]oxazepin-2-yl)benzamide], the IC50 was less than 0.05 µM in experiment [1] (Table 8) and more than 15 µM in experiment [2] (setting [4]).
Take `O=C(Cc1ccc(CN2c3ccccc3C=Cc3ccccc32)cc1)NO` [(Z)-2-(4-((5H-dibenzo[b,f]azepin-5-yl)methyl)phenyl)-N-hydroxyacetamide]: the IC50 was in the range of 0.1 to 1 µM in experiment [1] (Table 10) and 5 to 15 µM in experiment [2] (setting [3]).
Consider `O=C(NO)c1cccc(C2=Nc3ccccc3Oc3ccccc32)c1` [(Z)-3-(dibenzo[b,f][1,4]oxazepin-11-yl)-N-hydroxybenzamide], for which the figures for the IC50 in experiment [1] (Table 8) and in experiment [2] (setting [4]) were 0.1 to 1 µM and more than 15 µM, respectively.
Taken in the same sequence, the figures for `O=C(NO)c1ccc(C2=Nc3ccccc3Oc3cccc(F)c32)cc1` [(Z)-4-(1-fluorodibenzo[b,f][1,4]oxazepin-11-yl)-N-hydroxybenzamide] were less than 0.05 µM and 5 to 15 µM.
On to `O=C(NO)c1ccc(C2=Nc3ccccc3Oc3ccc(Cl)cc32)cc1` [(Z)-4-(2-chlorodibenzo[b,f][1,4]oxazepin-11-yl)-N-hydroxybenzamide], for which the IC50 is less than 0.05 µM in experiment [1] (Table 8) and 5 to 15 µM in experiment [2] (setting [4]).
Taken in the same sequence, the figures for `COc1cc(F)cc2c1Oc1ccccc1N=C2c1ccc(C(=O)NO)cc1` [(Z)-4-(2-fluoro-4-methoxydibenzo[b,f][1,4]oxazepin-11-yl)-N-hydroxybenzamide] were less than 0.05 µM and 1 to 5 µM.
Taken in the same sequence, the figures for `O=C(NO)c1ccc(C2=Nc3ccccc3Oc3ccc(F)cc32)cc1` [(Z)-4-(2-fluorodibenzo[b,f][1,4]oxazepin-11-yl)-N-hydroxybenzamide] were less than 0.05 µM and 1 to 5 µM.
On to `O=C(NO)c1ccc(C2=Nc3ccccc3Oc3cc(F)ccc32)cc1` [(Z)-4-(3-fluorodibenzo[b,f][1,4]oxazepin-11-yl)-N-hydroxybenzamide], for which the half-inhibitory concentration (IC50) is 0.1 to 1 µM in experiment [1] (Table 8) and more than 15 µM in experiment [2] (setting [4]).
As for `O=C(NO)c1ccc(C2=Nc3ccccc3Oc3c(F)cccc32)cc1` [(Z)-4-(4-fluorodibenzo[b,f][1,4]oxazepin-11-yl)-N-hydroxybenzamide], the IC50 lay within 0.1 to 1 µM in experiment [1] (Table 8) and 5 to 15 µM in experiment [2] (setting [4]).
Taken in the same sequence, the figures for `O=C(NO)c1ccc(C2=Nc3ccccc3N(C3CC3)c3ccc(F)cc32)cc1` [(Z)-4-(5-cyclopropyl-2-fluoro-5H-dibenzo[b,e][1,4]diazepin-11-yl)-N-hydroxybenzamide] were 0.05 to 0.1 µM and 1 to 5 µM.
For `O=C(NO)c1ccc(C2=Nc3ccccc3N(C3CC3)c3ccccc32)cc1` [(Z)-4-(5-cyclopropyl-5H-dibenzo[b,e][1,4]diazepin-11-yl)-N-hydroxybenzamide] the same measures were 0.1 to 1 µM and 1 to 5 µM.
For `CCN1c2ccccc2N=C(c2ccc(C(=O)NO)cc2)c2ccccc21` [(Z)-4-(5-ethyl-5H-dibenzo[b,e][1,4]diazepin-11-yl)-N-hydroxybenzamide] the same measures were 0.05 to 0.1 µM and 1 to 5 µM.
Consider `O=C(NO)c1ccc(C2=Nc3ccccc3Cn3cccc32)cc1` [(Z)-4-(5H-benzo[e]pyrrolo[1,2-a][1,4]diazepin-11-yl)-N-hydroxybenzamide], for which the IC50 in experiment [1] (Table 8) was less than 0.05 µM; in experiment [2] (setting [4]) it was 1 to 5 µM.
For `O=C(NO)c1ccc(C2=Nc3ccccc3Nc3ccccc32)cc1` [(Z)-4-(5H-dibenzo[b,e][1,4]diazepin-11-yl)-N-hydroxybenzamide] the same measures were 0.1 to 1 µM and 1 to 5 µM.
For the compound `O=C(CCCN1c2ccccc2C=Cc2ccccc21)NO` [(Z)-4-(5H-dibenzo[b,f]azepin-5-yl)-N-hydroxybutanamide], the IC50 was 1 to 10 µM in experiment [1] (Table 10) and 5 to 15 µM in experiment [2] (setting [3]).
On to `O=C(NO)c1ccc(C2=Nc3cccc(F)c3Oc3ccccc32)cc1` [(Z)-4-(6-fluorodibenzo[b,f][1,4]oxazepin-11-yl)-N-hydroxybenzamide], for which the concentration for half-maximal inhibition (IC50) lay in the range of 0.05 to 0.1 µM in experiment [1] (Table 8) and 5 to 15 µM in experiment [2] (setting [4]).
For `O=C(NO)c1ccc(C2=Nc3ccc(Cl)cc3Oc3ccccc32)cc1` [(Z)-4-(7-chlorodibenzo[b,f][1,4]oxazepin-11-yl)-N-hydroxybenzamide] the same measures were 0.1 to 1 µM and 5 to 15 µM.
Turning to `N#Cc1ccc2c(c1)Oc1ccccc1C(c1ccc(C(=O)NO)cc1)=N2` [(Z)-4-(7-cyanodibenzo[b,f][1,4]oxazepin-11-yl)-N-hydroxybenzamide], the IC50 was less than 0.05 µM in experiment [1] (Table 8) and 5 to 15 µM in experiment [2] (setting [4]).
Taken in the same sequence, the figures for `O=C(NO)c1ccc(C2=Nc3cc(Cl)ccc3Oc3ccccc32)cc1` [(Z)-4-(8-chlorodibenzo[b,f][1,4]oxazepin-11-yl)-N-hydroxybenzamide] were 0.1 to 1 µM and 5 to 15 µM.
In the case of `N#Cc1ccc2c(c1)N=C(c1ccc(C(=O)NO)cc1)c1ccccc1O2` [(Z)-4-(8-cyanodibenzo[b,f][1,4]oxazepin-11-yl)-N-hydroxybenzamide], the IC50 lay within 0.05 to 0.1 µM in experiment [1] (Table 8) and 1 to 5 µM in experiment [2] (setting [4]).
Taken in the same sequence, the figures for `O=C(NO)c1ccc(C2=Nc3cc(Cl)ccc3Nc3ccccc32)cc1` [(Z)-4-(8-oro-5H-dibenzo[b,e][1,4]diazepin-11-yl)-N-hydroxybenzamide] were 0.05 to 0.1 µM and 1 to 5 µM.
Regarding `O=C(NO)c1ccc(C2=Nc3c(F)cccc3Oc3ccccc32)cc1` [(Z)-4-(9-fluorodibenzo[b,f][1,4]oxazepin-11-yl)-N-hydroxybenzamide], the IC50 in experiment [1] (Table 8) is 0.05 to 0.1 µM; in experiment [2] (setting [4]), 1 to 5 µM.
Taken in the same sequence, the figures for `O=C(NO)c1ccc(C2=Nc3ccccc3N(C3CC3)c3ncccc32)cc1` [(Z)-4-(11-cyclopropyl-11H-benzo[b]pyrido[2,3-e][1,4]diazepin-5-yl)-N-hydroxybenzamide] were less than 0.05 µM and less than 1 µM.
`CCN1c2ccccc2N=C(c2ccc(C(=O)NO)cc2)c2cccnc21` [(Z)-4-(11-ethyl-11H-benzo[b]pyrido[2,3-e][1,4]diazepin-5-yl)-N-hydroxybenzamide]: the concentration for half-maximal inhibition (IC50) was less than 0.05 µM in experiment [1] (Table 8) and less than 1 µM in experiment [2] (setting [4]).

For the origin of these results see patent publication US20170000749A1, “Methods for Treating Cognitive Disorders Using Inhibitors of Histone Deacetylase” (Forum Pharmaceuticals, Inc., priority 2008, published 2017).
